Measured values published in patent US9725457B2, “6-amido derivatives of 4, 5-a epoxymorphinans for the treatment of pain” (Sloan-Kettering Institute for Cancer Research, priority 2010, dated 2017).

Assays:
[1] = target: T1, DOR (delta opioid receptor), DOR1-CHO (Mus musculus, UniProt P32300); assay: Competition binding in DOR-CHO, 125I-SMGP1 radioligand
T1 construct: expressed in transfected cells; host or cells: CHO
Procedure: Receptor-Binding Assays: Competition-binding assays in MOR-CHO (mu), DOR-CHO (delta) and KOR-CHO (kappa) were performed at 25° C. in 50 mM potassium phosphate buffer, pH 7.4, containing 5 mM magnesium sulfate (only in the case of CHO-MOR). Specific binding was defined as the difference between total binding and nonspecific binding, determined in the presence of 8 μM levallorphan. […] Protein concentrations were generally 20-40 μg/mL, incubation times were 90 minutes for all assays. […] Specific binding was defined as the difference between total binding and nonspecific binding, determined in the presence of 8 μM levallorphan. […] Kd, Bmax, and Ki values were calculated by nonlinear regression analysis (GraphPadPrism).

mice [2] = assay: Radiant heat tail flick analgesia assay; type: in vivo
Procedure: Tail Flick Analgesia Assays: Male CD-i mice (25-35 g; Charles River Breeding Laboratories, Wilmington, Mass.) were maintained on a 12-hr light/dark cycle with Purina rodent chow and water available ad libitum. Mice were housed in groups of five until testing. Analgesia was determined using the radiant heat tail-flick technique [D'Amour and Smith, J. Pharmacol. Exp. Ther. 72: 74-79 (1941)]. For the tail-flick assay, the latency to withdraw the tail from a focused light stimulus was measured electronically using a photocell. […] Post-treatment tail-flick latencies were determined as indicated for each experiment, and a maximal latency of 10 sec for tail-flick was used to minimize tissue damage. All experiments were replicated at least twice with each group in each experiment containing at least 10 mice and the combined results of all replications presented.

mice [3] = assay: Tolerance studies and effects of chronic administration (cross tolerance, precipitated withdrawal)
Procedure: Tail-flick latencies were determined before and 30 minutes after each injection. See Gistrak et al. (1989) op. cit. […] Similarly, a group of mice (n=10) were made tolerant to test compound by twice daily injections to 1 mg/kg, s.c. for 10 days. […] Animals were evaluated for signs of diarrhea and jumping. See Gistrak et al. (1989) op. cit.

kappa3 opioid receptor = kappa3 opioid receptor (Mus musculus, UniProt P42866); assay: Kappa3 opioid receptor competition binding in whole brain membrane homogenates
Procedure: (§1) Receptor-Binding Assays: Competition-binding assays in MOR-CHO (mu), DOR-CHO (delta) and KOR-CHO (kappa) were performed at 25° C. in 50 mM potassium phosphate buffer, pH 7.4, containing 5 mM magnesium sulfate (only in the case of CHO-MOR). Specific binding was defined as the difference between total binding and nonspecific binding, determined in the presence of 8 μM levallorphan. 125I-SMGP1 (IBNtxA) was used as the universal radioligand to determine the relative affinity of drugs in MOR1-CHO, KOR1-CHO and DOR1-CHO. Protein concentrations were generally 20-40 μg/mL, incubation times were 90 minutes for all assays. (Majumdar et al., Bioorg Med Chem Lett. 2011, 21(13), 4001-4004). Kappa3 opioid receptor competition binding assays were carried out in whole brain membrane homogenates, performed at 25° C. in 50 mM potassium phosphate buffer, pH 7.4, containing 5 mM magnesium sulfate for 90 minutes in presence of 100 nM CTAP, 100 nM U50488h and 100 nM DPDPE. ^125I-SMGP1 was used as the radioligand in the assays, typically 500 micrograms of protein and 0.15 nM of the radioligand was used in a 0.5 mL assay. Specific binding was defined as the difference between total binding and nonspecific binding, determined in the presence of 8 μM levallorphan. Protein concentration was determined as described by Lowry et al. [J Biol Chem 1951, 193, 265-275; (1951)] using bovine serum albumin as the standard. Kd, Bmax, and Ki values were calculated by nonlinear regression analysis (GraphPadPrism). […] The “kappa3 opioid receptor” as referred to herein is the receptor first characterized by Clark et al. [J. Pharmacol. Exp. Ther. 251, 461-468 (1989)].

[4] = target: T2, KOR (kappa opioid receptor), KOR1-CHO (Mus musculus, UniProt P33534); assay: Competition binding in KOR-CHO, 125I-SMGP1 radioligand
T2 construct: expressed in transfected cells; host or cells: CHO
Procedure: as §1

mice [5] = assay: Gastrointestinal motility (charcoal meal transit) assay; type: in vivo
Procedure: Gastrointestinal motility assay: Gastrointestinal transit was determined as described by Paul and Pasternak [Eur. J. Pharmacol. 149 (1988), pp. 403-404.)]. In brief, after withholding food for 8 hours, animals received the indicated drug and then were given a charcoal meal (0.2 mL; 10% of purified charcoal and 2.5% of gum tragacanth, w/v) by gavage and were sacrificed 30 min later. The distance traveled by the charcoal meal was then measured and reported in centimeters.

mice [6] = assay: Respiratory depression assessment (MouseOx pulse oximeter); conditions: 2.5 mg/kg subcutaneously (five times the ED50), CD1 mice
Procedure: Respiratory Depression assessment: The MouseOx Pulse Oximeter system (Starr Life Sciences, Pittsburgh, Pa.) was used to assess respiratory rate in awake, freely-moving, adult male CD1 mice. For 30 minutes, each animal was habituated to the device using a blank collar, after which the oximeter collar was placed on the animal. A five-second average breath rate was assessed at 5 minute intervals. A baseline for each animal was obtained over a 25 minute period prior to drug injection; beginning 15 minutes post-injection, measurements were then taken for a period of 35 minutes.

[7] = target: T3, MOR (mu opioid receptor), MOR1-CHO (Mus musculus, UniProt P42866); assay: Competition binding in MOR-CHO, 125I-SMGP1 radioligand
T3 construct: expressed in transfected cells; host or cells: CHO
Procedure: as §1

With `O=C(NC1CCC2(O)C3Cc4ccc(O)c5c4C2(CCN3CC2CC2)C1O5)c1cccc(I)c1` (stereo not drawn) [SMGP 1] the Ki [1] was 0.24 nM, the ED50 (mice [2]; Mus musculus, male CD-i mice, radiant heat tail-flick) was 0.53 mg/kg and the “analgesic potency in mice relative to morphine” value (mice [2]; mice) was “potency greater than morphine”. For the same compound, the “physical dependence (withdrawal on challenge with an antagonist after chronic administration)” value (mice [3]; chronic administration, challenge with antagonist) was “no physical dependence”, the “tolerance with chronic administration” value (mice [3]; chronic administration, mice) was “some tolerance” and the “analgesic response in highly morphine tolerant mice” value (mice [3]; highly morphine tolerant mice) was “normal analgesic response”. For the same compound, the “cross tolerance to morphine” value (mice [3]; mice) was “no cross tolerance to morphine”, the “affinity for the kappa3 site in words” value (kappa3 opioid receptor) was “high affinity” and the Ki [4] was 0.03 nM. The “effect on the inhibition of gastrointestinal transit” value (mice [5]) was “minimal”, the “respiratory depression as compared to saline” value (mice [6]) was “no statistically significant depression” and the Ki [7] was 0.11 nM.
